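Exposure lasted 48 hours, with cells grown in 96-well plates and compounds tested at five concentrations. Here, GI50 denotes the concentration required for 50% inhibition of growth. TGI is the concentration that stops growth completely.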
What was measured:
Experiment in all cases: NCI-60 cell line screen, 48 h
HS 578T breast = test system: HS 578T breast
SK-MEL-5 melanoma = test system: SK-MEL-5 melanoma
EKVX NSCLC = test system: EKVX NSCLC
SNB-19 CNS = test system: SNB-19 CNS
HCT-116 colon = test system: HCT-116 colon
OVCAR-8 ovarian = test system: OVCAR-8 ovarian
IGROV1 ovarian = test system: IGROV1 ovarian
UACC-257 melanoma = test system: UACC-257 melanoma
UACC-62 melanoma = test system: UACC-62 melanoma
OVCAR-4 ovarian = test system: OVCAR-4 ovarian
HOP-92 NSCLC = test system: HOP-92 NSCLC
CCRF-CEM leukemia = test system: CCRF-CEM leukemia
COLO 205 colon = test system: COLO 205 colon
SK-OV-3 ovarian = test system: SK-OV-3 ovarian
NCI-H226 lung = test system: NCI-H226 lung
OVCAR-5 ovarian = test system: OVCAR-5 ovarian
MDA-MB-231 breast = test system: MDA-MB-231 breast
NCI-H460 lung = test system: NCI-H460 lung
CAKI-1 renal = test system: CAKI-1 renal
A549 NSCLC = test system: A549 NSCLC
OVCAR-3 ovarian = test system: OVCAR-3 ovarian
MDA-MB-435 = test system: MDA-MB-435
SW-620 colon = test system: SW-620 colon
KM12 colon = test system: KM12 colon
NCI-H23 lung = test system: NCI-H23 lung
A498 renal = test system: A498 renal
U251 CNS = test system: U251 CNS
TK-10 renal = test system: TK-10 renal
SF-539 CNS = test system: SF-539 CNS
SK-MEL-2 melanoma = test system: SK-MEL-2 melanoma
SF-295 CNS = test system: SF-295 CNS
HCC-2998 colon = test system: HCC-2998 colon
MCF7 breast = test system: MCF7 breast
NCI/ADR-RES ovarian = test system: NCI/ADR-RES ovarian
MDA-N = test system: MDA-N
HOP-62 NSCLC = test system: HOP-62 NSCLC
K-562 leukemia = test system: K-562 leukemia
HL-60(TB) leukemia = test system: HL-60(TB) leukemia
MALME-3M melanoma = test system: MALME-3M melanoma
HT29 colon = test system: HT29 colon
RPMI-8226 leukemia = test system: RPMI-8226 leukemia
SNB-75 CNS = test system: SNB-75 CNS
PC-3 prostate = test system: PC-3 prostate
HCT-15 colon = test system: HCT-15 colon
786-0 renal = test system: 786-0 renal
RXF 393 renal = test system: RXF 393 renal
SR leukemia = test system: SR leukemia
SN12C renal = test system: SN12C renal
SF-268 CNS = test system: SF-268 CNS
T-47D breast = test system: T-47D breast
UO-31 renal = test system: UO-31 renal
ACHN renal = test system: ACHN renal
LOX IMVI melanoma = test system: LOX IMVI melanoma
M14 melanoma = test system: M14 melanoma
MOLT-4 leukemia = test system: MOLT-4 leukemia
DU-145 prostate = test system: DU-145 prostate
SK-MEL-28 melanoma = test system: SK-MEL-28 melanoma
BT-549 breast = test system: BT-549 breast
NCI-H522 lung = test system: NCI-H522 lung

Compound `CCCC(=O)O[C@H]1C=C2C[C@@]34SS[C@]5(CC6=C[C@H](OC(C)=O)[C@@H]7O[C@@H]7[C@H]6N5C3=O)C(=O)N4[C@@H]2[C@H]2O[C@H]21` has a TGI (HS 578T breast) of 18.6 µM, a TGI (SK-MEL-5 melanoma) of 0.655 µM and a TGI (EKVX NSCLC) of 0.0294 µM. The TGI (SNB-19 CNS) was 1.43 µM, the TGI (HCT-116 colon) was 0.0285 µM and the TGI (OVCAR-8 ovarian) was 0.907 µM. The TGI (IGROV1 ovarian) was 0.0499 µM, the TGI (UACC-257 melanoma) was 0.0746 µM and the TGI (UACC-62 melanoma) was 0.0851 µM. For the same compound, the TGI (OVCAR-4 ovarian) was 0.887 µM, the TGI (HOP-92 NSCLC) was 0.0941 µM and the TGI (CCRF-CEM leukemia) was 8.41 µM. For the same compound, the TGI (COLO 205 colon) was 0.0637 µM, the TGI (SK-OV-3 ovarian) was 3.21 µM and the TGI (NCI-H226 lung) was 1.77 µM. The TGI (OVCAR-5 ovarian) was 0.251 µM, the TGI (MDA-MB-231 breast) was 0.246 µM and the TGI (NCI-H460 lung) was 0.379 µM. It also gave a TGI (CAKI-1 renal) of 1.09 µM, a TGI (A549 NSCLC) of 1.68 µM and a TGI (OVCAR-3 ovarian) of 0.0314 µM. For the same compound, the TGI (MDA-MB-435) was 0.0241 µM, the TGI (SW-620 colon) was 0.671 µM and the TGI (KM12 colon) was 2.29 µM. It also gave a TGI (NCI-H23 lung) of 0.291 µM, a TGI (A498 renal) of 0.0697 µM and a TGI (U251 CNS) of 0.113 µM. For the same compound, the TGI (TK-10 renal) was 0.24 µM, the TGI (SF-539 CNS) was 0.932 µM and the TGI (SK-MEL-2 melanoma) was 0.296 µM. It also gave a TGI (SF-295 CNS) of 1.35 µM, a TGI (HCC-2998 colon) of 0.0194 µM and a TGI (MCF7 breast) of 0.226 µM. For the same compound, the TGI (NCI/ADR-RES ovarian) was 0.442 µM, the TGI (MDA-N) was 0.0314 µM and the TGI (HOP-62 NSCLC) was 0.0892 µM. The TGI (K-562 leukemia) was 5.83 µM, the TGI (HL-60(TB) leukemia) was 2.71 µM and the TGI (MALME-3M melanoma) was 0.0239 µM. The TGI (HT29 colon) was 0.0166 µM, the TGI (RPMI-8226 leukemia) was 2.29 µM and the TGI (SNB-75 CNS) was 0.331 µM. The TGI (PC-3 prostate) was 0.0611 µM, the TGI (HCT-15 colon) was 1.43 µM and the TGI (786-0 renal) was 0.00841 µM. The TGI (RXF 393 renal) was 0.0713 µM, the TGI (SR leukemia) was 50 µM and the TGI (SN12C renal) was 0.0111 µM. The TGI (SF-268 CNS) was 0.119 µM, the TGI (T-47D breast) was 0.605 µM and the TGI (UO-31 renal) was 0.173 µM. It also gave a TGI (ACHN renal) of 0.0391 µM, a TGI (LOX IMVI melanoma) of 0.131 µM and a TGI (M14 melanoma) of 0.0545 µM. The TGI (MOLT-4 leukemia) was 1.91 µM, the TGI (DU-145 prostate) was 0.362 µM and the TGI (SK-MEL-28 melanoma) was 0.235 µM.
`CCn1cc(-c2ccnc3[nH]ccc23)c(-c2cccc(NC(=O)Nc3ccc(OCc4ccccc4)cc3)c2)n1` showed a GI50 (HS 578T breast) of 4.85 µM, a TGI (HS 578T breast) of over 25 µM and a GI50 (SK-MEL-5 melanoma) of 13.5 µM. For the same compound, the TGI (SK-MEL-5 melanoma) was over 25 µM, the GI50 (EKVX NSCLC) was 21.8 µM and the TGI (EKVX NSCLC) was over 25 µM. For the same compound, the GI50 (SNB-19 CNS) was over 23.9 µM, the TGI (SNB-19 CNS) was over 25 µM and the GI50 (BT-549 breast) was over 21.9 µM. It also gave a TGI (BT-549 breast) of over 25 µM, a GI50 (HCT-116 colon) of 12.1 µM and a TGI (HCT-116 colon) of over 25 µM. The GI50 (OVCAR-8 ovarian) was 15.7 µM, the TGI (OVCAR-8 ovarian) was over 25 µM and the GI50 (IGROV1 ovarian) was 18.1 µM. It also gave a TGI (IGROV1 ovarian) of over 25 µM, a GI50 (UACC-257 melanoma) of over 24.1 µM and a TGI (UACC-257 melanoma) of over 25 µM. The GI50 (UACC-62 melanoma) was 5.89 µM, the TGI (UACC-62 melanoma) was over 25 µM and the GI50 (OVCAR-4 ovarian) was over 23.4 µM. The TGI (OVCAR-4 ovarian) was over 25 µM, the GI50 (HOP-92 NSCLC) was over 25 µM and the TGI (HOP-92 NSCLC) was over 25 µM. For the same compound, the GI50 (CCRF-CEM leukemia) was 11.5 µM, the TGI (CCRF-CEM leukemia) was over 25 µM and the GI50 (COLO 205 colon) was 11.2 µM. The TGI (COLO 205 colon) was over 25 µM, the GI50 (SK-OV-3 ovarian) was over 22.4 µM and the TGI (SK-OV-3 ovarian) was over 25 µM. The GI50 (NCI-H226 lung) was over 25 µM, the TGI (NCI-H226 lung) was over 25 µM and the GI50 (OVCAR-5 ovarian) was 22.1 µM. For the same compound, the TGI (OVCAR-5 ovarian) was over 25 µM, the GI50 (MDA-MB-231 breast) was 6.57 µM and the TGI (MDA-MB-231 breast) was over 25 µM. It also gave a GI50 (NCI-H460 lung) of 7.45 µM, a TGI (NCI-H460 lung) of over 25 µM and a GI50 (CAKI-1 renal) of 6.71 µM. The TGI (CAKI-1 renal) was over 25 µM, the GI50 (A549 NSCLC) was 2.85 µM and the TGI (A549 NSCLC) was over 25 µM. The GI50 (OVCAR-3 ovarian) was 6.24 µM, the TGI (OVCAR-3 ovarian) was 19.6 µM and the GI50 (MDA-MB-435) was 11 µM. It also gave a TGI (MDA-MB-435) of over 25 µM, a GI50 (SW-620 colon) of 20.2 µM and a TGI (SW-620 colon) of over 25 µM. For the same compound, the GI50 (KM12 colon) was 7.44 µM, the TGI (KM12 colon) was over 25 µM and the GI50 (NCI-H23 lung) was 16.5 µM. For the same compound, the TGI (NCI-H23 lung) was over 25 µM, the GI50 (A498 renal) was 7.64 µM and the TGI (A498 renal) was over 25 µM. The GI50 (U251 CNS) was 4.75 µM, the TGI (U251 CNS) was over 25 µM and the GI50 (TK-10 renal) was 24.8 µM. For the same compound, the TGI (TK-10 renal) was over 25 µM, the GI50 (SF-539 CNS) was 12.9 µM and the TGI (SF-539 CNS) was over 25 µM. It also gave a GI50 (SK-MEL-2 melanoma) of 8.14 µM, a TGI (SK-MEL-2 melanoma) of over 25 µM and a GI50 (SF-295 CNS) of 4.55 µM. For the same compound, the TGI (SF-295 CNS) was over 25 µM, the GI50 (HCC-2998 colon) was 13.2 µM and the TGI (HCC-2998 colon) was over 25 µM. The GI50 (MCF7 breast) was 8.15 µM, the TGI (MCF7 breast) was over 25 µM and the GI50 (NCI/ADR-RES ovarian) was over 25 µM. It also gave a TGI (NCI/ADR-RES ovarian) of over 25 µM, a GI50 (HOP-62 NSCLC) of over 14.9 µM and a TGI (HOP-62 NSCLC) of over 25 µM. For the same compound, the GI50 (K-562 leukemia) was 4.72 µM, the TGI (K-562 leukemia) was over 25 µM and the GI50 (HL-60(TB) leukemia) was 4.23 µM. It also gave a TGI (HL-60(TB) leukemia) of 17.2 µM, a GI50 (MALME-3M melanoma) of over 22.6 µM and a TGI (MALME-3M melanoma) of over 25 µM. It also gave a GI50 (HT29 colon) of 4.18 µM, a TGI (HT29 colon) of over 20.3 µM and a GI50 (RPMI-8226 leukemia) of 4.19 µM. The TGI (RPMI-8226 leukemia) was over 25 µM, the GI50 (SNB-75 CNS) was 4.35 µM and the TGI (SNB-75 CNS) was over 25 µM. For the same compound, the GI50 (PC-3 prostate) was 10.6 µM, the TGI (PC-3 prostate) was over 25 µM and the GI50 (HCT-15 colon) was 6.28 µM. The TGI (HCT-15 colon) was over 25 µM, the GI50 (786-0 renal) was 6.82 µM and the TGI (786-0 renal) was over 25 µM. The GI50 (RXF 393 renal) was 1.28 µM, the TGI (RXF 393 renal) was 7.88 µM and the GI50 (SR leukemia) was 7.25 µM. For the same compound, the TGI (SR leukemia) was over 25 µM, the GI50 (SN12C renal) was over 25 µM and the TGI (SN12C renal) was over 25 µM. The GI50 (SF-268 CNS) was over 19.7 µM, the TGI (SF-268 CNS) was over 25 µM and the GI50 (T-47D breast) was 6.65 µM. It also gave a TGI (T-47D breast) of over 25 µM, a GI50 (UO-31 renal) of 15 µM and a TGI (UO-31 renal) of over 25 µM. It also gave a GI50 (ACHN renal) of 15.2 µM, a TGI (ACHN renal) of over 25 µM and a GI50 (LOX IMVI melanoma) of 6.01 µM. The TGI (LOX IMVI melanoma) was over 25 µM, the GI50 (M14 melanoma) was 14.4 µM and the TGI (M14 melanoma) was over 25 µM. It also gave a GI50 (MOLT-4 leukemia) of 6.85 µM, a TGI (MOLT-4 leukemia) of over 25 µM and a GI50 (NCI-H522 lung) of 2.98 µM. For the same compound, the TGI (NCI-H522 lung) was over 25 µM, the GI50 (DU-145 prostate) was over 25 µM and the TGI (DU-145 prostate) was over 25 µM. For the same compound, the GI50 (SK-MEL-28 melanoma) was 18.1 µM and the TGI (SK-MEL-28 melanoma) was over 25 µM.

— PubChem BioAssay (NCI)
